{"source": "paper PMC8388125", "about": "“Kinetic and Structural Characterization of the Self-Labeling Protein Tags HaloTag7, SNAP-tag, and CLIP-tag” (Biochemistry, 2021)", "format_in_all_cases": "biochemical", "key": {"SNAP-tag (SNAP)": {"target": "T1, SNAP-tag (SNAP) (Homo sapiens, UniProt P16455, A127T/A154D/C150Q/C62A/G131K/G132T/G153L/K125A/K32I/L33F/M134L/N157G/Q115S/Q116H/R128A/R135S/S151G/S152D/S159E)", "T1 construct": "made in house; host or cells: E. coli BL21(DE3)-pLysS", "T1 sequence (P16455 1-182 K32I/L33F/C62A/Q115S/Q116H/K125A/A127T/R128A/G131K/G132T/M134L/R135S/C150Q/S151G/S152D/G153L/A154D/N157G/S159E limits assumed)": "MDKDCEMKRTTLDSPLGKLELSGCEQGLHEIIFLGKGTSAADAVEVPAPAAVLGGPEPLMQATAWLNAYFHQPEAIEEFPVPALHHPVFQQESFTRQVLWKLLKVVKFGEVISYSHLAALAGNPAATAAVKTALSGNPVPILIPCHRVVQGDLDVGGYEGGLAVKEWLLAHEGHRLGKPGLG", "test": "SNAP labeling kinetics via microplate reader (FP over time)", "description": "(§1) Labeling kinetics of SNAP and CLIP substrates were measured by recording FP over time using a microplate reader in a manner analogous to that of HT7 labeling kinetics described above with the following changes. The fluorescent substrate concentration was fixed to 20 nM, and protein concentrations were varied from 15 to 900 nM. Measurements were performed in SNAP-FP buffer.\n(§2) Kinetic data from microplate reader assays were fitted to a simplified kinetic model (eq 13) described by differential eqs 14–16 using DynaFit. The dead time of the measurements and baseline FP value were put in as fixed parameters. Standard deviations (normal distribution verified) and confidence intervals of fitted parameters were estimated with the Monte Carlo method with standard settings (N = 1000, 5% worst fits discarded). In the case of BG, CP, and BC kinetics, the substrate concentration was fitted by DynaFit to rule out quantification errors of the BG, CP, or BC fluorophores. Accurate fitting of the concentration was ensured by including conditions under which protein is limiting and no maximum FP value was reached."}, "CLIP-tag (CLIP)": {"target": "T2, CLIP-tag (CLIP) (Homo sapiens, UniProt P16455, A121V/A127T/A154D/C150Q/C62A/G131N/G132T/G153S/K125A/K32I/L33F/M134L/M60I/N157P/Q115S/Q116H/R128A/R135D/S151G/S152D/S159L/Y114E)", "T2 construct": "made in house; host or cells: E. coli BL21(DE3)-pLysS", "T2 sequence (P16455 1-182 K32I/L33F/M60I/C62A/Y114E/Q115S/Q116H/A121V/K125A/A127T/R128A/G131N/G132T/M134L/R135D/C150Q/S151G/S152D/G153S/A154D/N157P/S159L limits assumed)": "T1 sequence (P16455 1-182 K32I/L33F/C62A/Q115S/Q116H/K125A/A127T/R128A/G131K/G132T/M134L/R135S/C150Q/S151G/S152D/G153L/A154D/N157G/S159E limits assumed) with M60I, Y114E, A121V, K131N, S135D, L153S, G157P, E159L", "test": "CLIP labeling kinetics via microplate reader (FP over time)", "details": "CLIP, plate reader, kinetic model 1", "description": "as §1, §2"}, "CLIPf (CLIP^E30R)": {"target": "T3, CLIPf (CLIP^E30R) (Homo sapiens, UniProt P16455, A121V/A127T/A154D/C150Q/C62A/E30R/G131N/G132T/G153S/K125A/K32I/L33F/M134L/M60I/N157P/Q115S/Q116H/R128A/R135D/S151G/S152D/S159L/Y114E)", "T3 construct": "made in house; host or cells: E. coli BL21(DE3)-pLysS", "T3 sequence (P16455 1-182 E30R/K32I/L33F/M60I/C62A/Y114E/Q115S/Q116H/A121V/K125A/A127T/R128A/G131N/G132T/M134L/R135D/C150Q/S151G/S152D/G153S/A154D/N157P/S159L limits assumed)": "T1 sequence (P16455 1-182 K32I/L33F/C62A/Q115S/Q116H/K125A/A127T/R128A/G131K/G132T/M134L/R135S/C150Q/S151G/S152D/G153L/A154D/N157G/S159E limits assumed) with E30R, M60I, Y114E, A121V, K131N, S135D, L153S, G157P, E159L", "test": "CLIPf labeling kinetics via microplate reader (FP over time)", "details": "plate reader", "description": "as §1, §2"}, "[1]": {"target": "T4, hAGT (human O^6-alkylguanine-DNA alkyltransferase) (Homo sapiens, UniProt P16455)", "T4 construct": "StrepTag-II (N); enterokinase cleavage site (N); His10 (C); made in house; host or cells: E. coli BL21(DE3)-pLysS", "T4 sequence (P16455 1-207)": "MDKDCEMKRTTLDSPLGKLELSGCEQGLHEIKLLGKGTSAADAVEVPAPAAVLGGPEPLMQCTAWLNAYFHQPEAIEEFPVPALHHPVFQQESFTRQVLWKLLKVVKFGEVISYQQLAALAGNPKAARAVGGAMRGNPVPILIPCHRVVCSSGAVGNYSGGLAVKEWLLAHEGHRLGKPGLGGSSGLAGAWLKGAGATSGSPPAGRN", "test": "hAGT labeling kinetics via microplate reader (FP over time)", "details": "hAGT vs CLIP", "description": "as §1, §2"}}, "note": "Changes are numbered by the printed parent chain.", "data": [{"smiles": "CN(C)c1ccc2c(-c3cc(C(=O)NCc4ccc(COc5nccc(N)n5)cc4)ccc3C(=O)[O-])c3ccc(=[N+](C)C)cc-3oc2c1", "note": "[BC-TMR]", "values": [{"measurement": "times slower reaction of SNAP than with BG-TMR", "setting": "SNAP-tag (SNAP); SNAP cross-reactivity", "result": "more than 1000 times"}, {"measurement": "kapp (value ± standard deviation)", "setting": "SNAP-tag (SNAP); SNAP, plate reader, kinetic model 1", "result": "(3.20 ± 0.02) × 10^2 M^–1 s^–1"}, {"measurement": "kapp (value ± standard deviation)", "setting": "CLIP-tag (CLIP)", "result": "(1.85 ± 0.01) × 10^4 M^–1 s^–1"}, {"measurement": "kapp", "setting": "CLIPf (CLIP^E30R)", "result": "(3.37 ± 0.01) × 10^4 M^–1 s^–1"}, {"measurement": "times slower reaction with hAGT than with CLIP", "setting": "[1]", "result": 25000, "unit": "times"}]}]}
